The text below walks through data of ChEMBL document CHEMBL5131540, “Optimizing Shape Complementarity Enables the Discovery of Potent Tricyclic BCL6 Inhibitors” (J Med Chem, 2022).

The nature of one data set: in vitro. Conditions: PAMPA, pH 7.4. In general terms: PAMPA measures passive passage across an artificial lipid membrane.
Data set [1] is described as follows: Kinetic aqueous solubility of the compound in 4% DMSO/HEPES buffer at pH 8 incubated for 20 hrs by NMR analysis. In kind it is physicochemical. Conditions: read-out: Kinetic_solubility.

≈ marks a conversion by molar mass, not a printed value. Some results are limits rather than exact numbers.

Description for in vitro: Permeability of the compound at pH 7.4 by PAMPA

Usually Papp stands for the rate of passage across a membrane or cell layer, normalised by area and donor concentration. Lower therefore signals slow passage. On to `CCNc1cc(=O)[nH]c2ccc(Nc3ccnc(Cl)c3C#N)cc12`, for which the apparent permeability (Papp) in the data set “in vitro” is under 0.1 ×10⁻⁶ cm/s.

Turning to `C[C@@H]1CCOc2c(c3cc(Nc4ccnc(Cl)c4C#N)ccc3n(C)c2=O)N1`, the solubility kinetic at 20 h in data set [1] was 190 µM (≈ 75.2 µg/mL).
